Measured values as given in ChEMBL document CHEMBL1124073, “Synthesis and copper-dependent antimycoplasmal activity of 1-amino-3-(2-pyridyl)isoquinoline derivatives. 1. Amides” (1988).
Converted amounts (≈) assume the structure as drawn.

Key:
[1] = test system: Mycoplasmoides gallisepticum; assay: Antimycoplasmal activity against Mycoplasma gallisepticum K514 with the extra addition of copper (40 uM); type: functional
[2] = test system: Mycoplasmoides gallisepticum; assay: Antimycoplasmal activity against Mycoplasma gallisepticum K514 without the extra addition of copper; type: functional

Compound	MIC [1] [µM]	MIC [2] [µM]
CC[C@H]1OC(=O)C[C@@H](O)[C@H](C)[C@@H](O[C@@H]2O[C@H](C)[C@@H](O[C@H]3C[C@@](C)(O)[C@@H](O)[C@H](C)O3)[C@H](N(C)C)[C@H]2O)[C@@H](CC=O)C[C@@H](C)C(=O)/C=C/C(C)=C/[C@@H]1CO[C@@H]1O[C@H](C)[C@@H](O)[C@@H](OC)[C@H]1OC [TYLOSIN]	0.1 (≈ 0.0916 µg/mL)	0.1 (≈ 0.0916 µg/mL)
Cc1ccc(C)c(C(=O)Nc2nc(-c3ccccn3)cc3ccccc23)c1	0.39 (≈ 0.138 µg/mL)	> 100
CCCCC(CC)C(=O)Nc1nc(-c2ccccn2)cc2ccccc12 (stereo not drawn)	0.36 (≈ 0.125 µg/mL)	> 170
CC(C)(C)C(=O)Nc1nc(-c2ccccn2)cc2ccccc12	0.21 (≈ 0.0641 µg/mL)	> 25
CC(C)C(=O)Nc1nc(-c2ccccn2)cc2ccccc12	0.22 (≈ 0.0641 µg/mL)	> 25
CUPRIC SULFATE		400
COc1ccc(C(=O)Nc2nc(-c3ccccn3)cc3ccccc23)cc1	0.18 (≈ 0.064 µg/mL)	> 160
O=C(Nc1nc(-c2ccccn2)cc2ccccc12)c1ccc(Cl)c(Cl)c1	0.64 (≈ 0.252 µg/mL)	> 160
O=C(Nc1nc(-c2ccccn2)cc2ccccc12)c1ccc(Cl)cc1	0.35 (≈ 0.126 µg/mL)	> 160
Cc1cccc(C(=O)Nc2nc(-c3ccccn3)cc3ccccc23)c1	0.09 (≈ 0.0305 µg/mL)	> 23
CCC(=O)Nc1nc(-c2ccccn2)cc2ccccc12	0.45 (≈ 0.125 µg/mL)	> 25
CC(=O)Nc1nc(-c2ccccn2)cc2ccccc12	1.9 (≈ 0.5 µg/mL)	> 25
CCCCCCCCCC(=O)Nc1nc(-c2ccccn2)cc2ccccc12	0.34 (≈ 0.128 µg/mL)	> 170
O=C(Nc1nc(-c2ccccn2)cc2ccccc12)c1ccccc1	0.1 (≈ 0.0325 µg/mL)	12.3 (≈ 4.01 µg/mL)
Cc1ccc(C(=O)Nc2nc(-c3ccccn3)cc3ccccc23)cc1	0.19 (≈ 0.0645 µg/mL)	> 160

Continued by falling MIC [1], values first:

MIC [1] [µM]	MIC [2] [µM]	Compound
0.78 (≈ 0.276 µg/mL)	> 25	Cc1cccc(C)c1C(=O)Nc1nc(-c2ccccn2)cc2ccccc12
0.45 (≈ 0.0996 µg/mL)	452 (≈ 100 µg/mL)	Nc1nc(-c2ccccn2)cc2ccccc12
0.39 (≈ 0.138 µg/mL)	> 100	Cc1cc(C)cc(C(=O)Nc2nc(-c3ccccn3)cc3ccccc23)c1
0.39 (≈ 0.138 µg/mL)	> 100	Cc1ccc(C(=O)Nc2nc(-c3ccccn3)cc3ccccc23)c(C)c1
0.39 (≈ 0.138 µg/mL)	> 100	Cc1ccc(C(=O)Nc2nc(-c3ccccn3)cc3ccccc23)cc1C
0.35 (≈ 0.126 µg/mL)	> 23	O=C(Nc1nc(-c2ccccn2)cc2ccccc12)c1cccc(Cl)c1
0.18 (≈ 0.064 µg/mL)	> 23	COc1cccc(C(=O)Nc2nc(-c3ccccn3)cc3ccccc23)c1
